Assay results published in article PMC6331978 (Molecules, 2015).
Entries after “also recorded” stand apart in the source; their conditions may differ. Read-outs that look alike come from different tables or passages of the source.

Experiments:
[1] = test system: primary culture of rat hepatocytes; experiment: Effect of sesquiterpenes on DOX toxicity in hepatocytes, MTT test; settings: 24 h; for Effect on DOX toxicity in hepatocytes at 0.5 µM DOX: 0.5 µM DOX + 12.5 µg/mL sesquiterpene; for Effect on DOX toxicity in hepatocytes at other DOX concentrations: DOX 0.25, 1, 2 µM + sesquiterpene
Experimental: (§2) The toxicity of DOX alone as well as combinations of DOX and sesquiterpene was tested in primary culture of rat hepatocytes. […] The number of viable cells was measured after 24 h exposition of cells to various concentrations of the tested compounds.
Data presented as percentage of control cells (=100%) represent the mean ± S.D. from 2 independent experiments with 6 parallels in each (↑ significant increase; ↓ significant decrease).
Pure commercially available sesquiterpenes and DOX were pre-dissolved in DMSO or in pure ethanol. The concentration of organic solvent in medium was 0.1%. The cells were exposed to various concentrations of the tested compounds in culture medium. The cells cultured in medium with pure DMSO or ethanol without tested compounds were used as control samples. DMSO (10%) served as a positive control in both the primary culture of hepatocytes and of CaCo-2 cells. […] The viability of the hepatocytes was tested using a MTT assay after 24 h expositions.
(§3) The mitochondria of living cells are able to reduce yellow MTT (3-(4,5-dimethylthiazol-2-yl)-2,5-diphenyltetrazolium bromide) to purple formazan. The cells were cultured in 96-well plates. After 24 h exposure, 25 µL of MTT solution (3 mg of MTT in 1 mL of PBS) were added to each well. The plates were incubated for an additional 2 h at 37 °C, at which time the medium was removed and the formed formazan was dissolved in 50 µL of 0.08 M HCl in isopropanol by 30 min shaking. The absorbance in each well was read at 570 and 690 nm using a spectrophotometer (Tecan Infinite M200).

[2] = test system: primary culture of rat hepatocytes; experiment: Viability of primary culture of rat hepatocytes, MTT test; settings: 24 h; for Hepatotoxicity / viability of hepatocytes: sesquiterpene alone 0–50 µg/mL
Experimental: as §2
The rat hepatocytes were obtained from rat liver by the two-step collagenase method. Briefly, the liver was perfused with salt solution (0.14 M NaCl, 5.0 mM KCl, 0.8 mM MgSO4) in Na^+/K^+ phosphate buffer (0.2 mM, pH 7.4) containing a calcium binding component (0.4 mM EGTA). […] The collagenase perfusion was proceeded for 5–6 min. After perfusion the liver was transferred to a medium containing BSA and the hepatocytes were released. The obtained suspension was filtered through a nylon mesh and centrifuged at 40× g for 5 min at 4 °C. The pellet was re-suspended in chilled buffer and the washing procedure was twice repeated. Finally, three million viable (75%–85%) cells in 3 mL of culture medium ISOM (1:1 mixture of Ham F12 and Williams’ E) were placed into 96-well plastic dishes. The fetal calf serum was added in the culture medium (5%). Cultures were maintained without the tested compounds for 4 h at 37 °C in a humid atmosphere of air and 5% CO2.
Pure commercially available sesquiterpenes and DOX were pre-dissolved in DMSO or in pure ethanol. The concentration of organic solvent in medium was 0.1%. The cells were exposed to various concentrations of the tested compounds in culture medium. The cells cultured in medium with pure DMSO or ethanol without tested compounds were used as control samples. […] The viability of the hepatocytes was tested using a MTT assay after 24 h expositions.
as §3

CaCo-2 cells [3] = experiment: DOX accumulation in CaCo-2 cells (UHPLC); type: cell-based, human; settings: 3 h; for Effect on intracellular DOX concentration: DOX 6 µM + sesquiterpene 10 or 50 µg/mL
Experimental: The effect of sesquiterpenes on DOX accumulation in cells was also studied. Concentrations of DOX within cells after a 3-h incubation of CaCo-2 cells, hepatocytes with DOX alone and DOX + sesquiterpene combinations were analyzed. […] On the other hand, the addition of all sesquiterpenes to DOX led to a concentration-dependent increase of DOX concentration within CaCo-2 cells. […] CAO (at concentration 50 µg/mL) was able to enhance the intracellular DOX concentration in CaCo-2 cells at a rate of 3.6-times.
The suspension of CaCo-2 cells or hepatocytes (600 µL; density 5000 cells/100 µL) per well was set to a 12-well plate. After 48 h, 600 µL of solutions in medium of the tested substances were added. The cells were treated with DOX (6 µM) alone, or in combination with individual sesquiterpenes (10 or 50 µg/mL) for 3 h. At the end of the experiment, the medium was removed and cells were washed with 500 µL of PBS. One hundred µL of lysing buffer (25 mM Tris, 150 mM NaCl, 1% Triton, pH 7.4) were then added, at which time the cells were lysed for 15 min, then mixed with 300 µL of ice-cold methanol and centrifuged (10,000× g, 10 min, 4 °C). The supernatant was filtered through a 0.22 µm filter and the filtrate was used for analysis.
DOX was detected on an Agilent 1290 Series UHPLC chromatographic system (Agilent, Santa Clara, CA, USA) equipped with a Zorbax C18 Eclipse Plus (2.1 × 50 mm, 1.8 μm) column with a 1290 Infinity inline filter (Agilent). The HPLC method used by was adapted to a UHPLC system: Isocratic elution of 1.0 mL/min by 0.1% formic acid in water and acetonitrile in ratio 76:24; 30 °C thermostated column compartment; fluorescence detection at λex = 480 nm and λem = 560 nm. Chemical standards were purchased from Toronto Research Chemicals (Toronto, ON, Canada).

CaCo-2 cells [4] = experiment: Intracellular ROS formation (H2DCF-DA) in CaCo-2 cells; type: cell-based, human; settings: for Effect on ROS formation, sesquiterpene alone: 10 µg/mL; for Effect of DOX + sesquiterpene on ROS formation compared with DOX alone: DOX 1 µM + sesquiterpene 10 µg/mL
Source text: (§1) To assess ROS generation in CaCo-2 cells or […], a measurement of 2′,7′-dichlorodihydrofluorescein-diacetate (H2DCF-DA) oxidation was used. This non-fluorescent reagent diffuses passively through the plasma membrane into the cell, where the acetate groups are cleaved by intracellular esterases. The compound can then be oxidized by ROS formed within the cell (particularly by hydroxyl radicals, •OH) to form fluorescent dichlorofluorescein (DCF), while the fluorescence intensity is proportional to the ROS level. CaCo-2 cells or hepatocytes (seeded in a 96-well plate at a density of 2500 cells/well) were washed by PBS buffer and loaded with 100 µL of the tested substances (individual sesquiterpenes, DOX alone, DOX + sesquiterpene combinations pre-dissolved in DMSO) in PBS buffer. After 12-h incubation, 100 µL of 5 μM H2DCF-DA were added. After another incubation of 30-min, fluorescence intensity was measured for 50 min at 37 °C using a microplate reader Tecan Infinite M200 at λex = 485 nm and λem = 525 nm. Cells treated with PBS only with pure DMSO (as a solvent) were used as control samples. The 3% H2O2 solution was used as a positive control.

CaCo-2 cells [5] = experiment: Combination of DOX and sesquiterpenes in CaCo-2 cells, NRU test, combination indexes (CalcuSyn); type: cell-based, human; settings: CaCo-2, 72 h; for Combined effect with DOX (combination index, CI): NRU, CalcuSyn
Experimental: Concentrations of DOX and sesquiterpenes were selected according to the Chou-Talalay Method. After 72-h incubation, the number of viable cells was assayed using NRU. […] When DOX was used in combinations with individual sesquiterpenes, a significant increase of DOX efficacy was observed.
With the aim of evaluating and quantifying the combined effect of DOX and sesquiterpenes, combination indexes were calculated using CalcuSyn (ver. 1.1, Biosoft, Cambridge, UK); the plot of combination indexes (CI) vs. fractions of dead cells (Fa) is presented in Figure 5. […] It is important to emphasize that synergy of anticancer agents at high effect levels (Fa > 0.8) is more relevant to therapy than at low levels.
Figure 5 Combination indexes (CI) of DOX and sesquiterpenes in dependence on fraction of affected CaCo-2 cells (Fa). Incubations lasted for 72 h. Data were calculated using CalcuSyn software.
The cells were cultured in 96‑well plates. After 72 h exposure, the medium was removed and 100 µL of neutral red-containing medium was added into each well, at which time the plates were incubated for an additional 3 h at 37 °C. The cells were washed with 100 µL of PBS, then fixed in a solution of 0.5% formaldehyde/1% calcium chloride for 15 min. The neutral red dye was extracted from the viable cells with a solvent (50% ethanol/1% acetic acid) by shaking for 30 min at room temperature. The absorbance of solubilized dye was measured using a spectrophotometer (Infinite M200, Tecan, Männedorf, Switzerland) at 540 nm. Each sample was assayed in 6 parallels and 3 independent experiments were performed. The viabilities of the treated cells were expressed as a percentage of untreated controls (100%). The effect of sesquiterpenes on DOX efficacy was evaluated using CalcuSyn software.

CaCo-2 cells [6] = experiment: Antiproliferative effect in CaCo-2 cells, neutral red uptake (NRU) test; type: cell-based, human; settings: for Inhibition of cancer cell proliferation: 0–50 µg/mL, 72 h; for IC50: Homo sapiens
Experimental: Firstly, the antiproliferative effect of five sesquiterpenes CAR, CAO, HUM, NER, VAL was tested in CaCo-2 cancer cells. The cells were incubated with individual sesquiterpenes in concentrations 0–50 µg/mL for 72 h. After incubation, a number of viable cells was assayed using a NRU test and IC50 values were calculated.
CaCo-2 cancer cells were incubated with DOX alone (concentrations 0.25, 0.5, 1, 2, 4 µM), with individual sesquiterpenes alone (concentrations 6.125, 12.5, 25, 50 µg/mL) and with DOX (concentrations 0.25, 0.5, 1, 2 µM) in combinations with each sesquiterpene (concentrations 6.125, 12.5, 25, 50 µg/mL). […] After 72-h incubation, the number of viable cells was assayed using NRU.
The human epithelial colorectal adenocarcinoma line CaCo-2 was purchased from ATCC (supplier for Czech Republic: LGC Standards, Lomianki, Poland). […] The CaCo-2 cells were cultured in MEM supplemented with 10% heat-inactivated FBS, 1% non-essential amino acid, 1.5% L-glutamine solution and 0.5% penicillin/streptomycin. Cells were grown in T-75 cm^2 culture flasks in a humidified atmosphere containing 5% CO2 at 37 °C.
Pure commercially available sesquiterpenes and DOX were pre-dissolved in DMSO or in pure ethanol. The concentration of organic solvent in medium was 0.1%. The cells were exposed to various concentrations of the tested compounds in culture medium. The cells cultured in medium with pure DMSO or ethanol without tested compounds were used as control samples. […] The number of viable CaCo-2 cells was assayed using the neutral red uptake test after 72 h expositions.
Data are presented as means ± S.D. of a given number of experiments. Statistical significance (evaluated using a one-way ANOVA) was acceptable to a level of p < 0.05. The concentration inducing a 50% decrease of cell viability as compared to control (IC50) was calculated using GraphPad Prism 6.0 nonlinear regression.

hepatocytes = experiment: Intracellular ROS formation (H2DCF-DA) in hepatocytes; type: cell-based, rat; settings: DOX 1 µM
Source text: as §1

[7] = CaCo-2 cells, 72 h incubation, NRU test, concentrations 0–50 µg/mL, read-out: IC50

Row | IC50 (CaCo-2 cells [6]; [7]) | IC50 (CaCo-2 cells [6]; CaCo-2 cells, 72-h incubation, NRU, DOX alone, read-out: IC50 (antiproliferative effect of DOX)) | Compound | Effect on DOX toxicity in hepatocytes at 0.5 µM DOX [1] | Effect on DOX toxicity in hepatocytes at other DOX concentrations [1] | Hepatotoxicity / viability of hepatocytes [2] | Effect on intracellular DOX concentration (CaCo-2 cells [3]) | Effect on ROS formation, sesquiterpene alone (CaCo-2 cells [4]) | Effect of DOX + sesquiterpene on ROS formation compared with DOX alone (CaCo-2 cells [4]) | Combined effect with DOX (combination index, CI) (CaCo-2 cells [5]) | Combined effect with DOX at lower Fa (CaCo-2 cells [5]; lower fraction of affected cells) | Inhibition of cancer cell proliferation (CaCo-2 cells [6]; CaCo-2 cells, NRU) | Effect on DOX toxicity in hepatocytes ([1]; DOX 0.25–2 µM + sesquiterpene 6.125–50 µg/mL) | Effect on DOX toxicity in hepatocytes at DOX 0.25 and 2 µM ([1]; DOX 0.25 and 2 µM + sesquiterpene) | Enhancement of intracellular DOX concentration (CaCo-2 cells [3]; sesquiterpene 50 µg/mL, DOX 6 µM, vs DOX alone) | Combined effect with DOX at Fa > 0.8 (CaCo-2 cells [5]; higher number of cells affected (Fa > 0.8)) | Effect of DOX alone on ROS production (hepatocytes) | Hepatotoxicity of DOX alone ([2]; DOX 0.25–2 µM) | Effect of DOX alone on ROS production (CaCo-2 cells [4]; DOX 1 µM) | IC50 (CaCo-2 cells [6]; Caco-2, 72 h)
1 | 28.7 ± 2.5 µg/mL |  | C=CC(C)(O)CC/C=C(\C)CCC=C(C)C (racemic) [NER, (±)-trans-nerolidol] | increased DOX toxicity | did not influence DOX toxicity | none of tested sesquiterpenes showed hepatotoxicity | more pronounced enhancement of DOX accumulation | strong antioxidant | significant antioxidant effect | significant synergistic effects with DOX | most synergistic effect on DOX | most effective; also recorded: inhibited the proliferation of CaCo-2 cancer cells |  |  |  |  |  |  |  | 
2 | 24.4 ± 2.4 µg/mL |  | C/C1=C\CC/C(C)=C/CC(C)(C)/C=C/C1 [HUM, α-humulene] |  |  | none of tested sesquiterpenes showed hepatotoxicity |  | did not influence ROS formation |  | acted rather additively |  | most effective; also recorded: inhibited the proliferation of CaCo-2 cancer cells | did not affect DOX toxicity |  |  |  |  |  |  | 
3 |  | 1.9 µM | COc1cccc2c1C(=O)c1c(O)c3c(c(O)c1C2=O)C[C@@](O)(C(=O)CO)C[C@@H]3O[C@H]1C[C@H](N)[C@H](O)[C@H](C)O1 [DOX, doxorubicin, reference compound] |  |  |  |  |  |  |  |  |  |  |  |  |  | did not have a significant effect | marked hepatotoxicity | increased ROS production | 

Further lines, the compound ahead of its results:

Row | Compound | IC50 (CaCo-2 cells [6]; [7]) | IC50 (CaCo-2 cells [6]; CaCo-2 cells, 72-h incubation, NRU, DOX alone, read-out: IC50 (antiproliferative effect of DOX)) | Effect on DOX toxicity in hepatocytes at 0.5 µM DOX [1] | Effect on DOX toxicity in hepatocytes at other DOX concentrations [1] | Hepatotoxicity / viability of hepatocytes [2] | Effect on intracellular DOX concentration (CaCo-2 cells [3]) | Effect on ROS formation, sesquiterpene alone (CaCo-2 cells [4]) | Effect of DOX + sesquiterpene on ROS formation compared with DOX alone (CaCo-2 cells [4]) | Combined effect with DOX (combination index, CI) (CaCo-2 cells [5]) | Combined effect with DOX at lower Fa (CaCo-2 cells [5]; lower fraction of affected cells) | Inhibition of cancer cell proliferation (CaCo-2 cells [6]; CaCo-2 cells, NRU) | Effect on DOX toxicity in hepatocytes ([1]; DOX 0.25–2 µM + sesquiterpene 6.125–50 µg/mL) | Effect on DOX toxicity in hepatocytes at DOX 0.25 and 2 µM ([1]; DOX 0.25 and 2 µM + sesquiterpene) | Enhancement of intracellular DOX concentration (CaCo-2 cells [3]; sesquiterpene 50 µg/mL, DOX 6 µM, vs DOX alone) | Combined effect with DOX at Fa > 0.8 (CaCo-2 cells [5]; higher number of cells affected (Fa > 0.8)) | Effect of DOX alone on ROS production (hepatocytes) | Hepatotoxicity of DOX alone ([2]; DOX 0.25–2 µM) | Effect of DOX alone on ROS production (CaCo-2 cells [4]; DOX 1 µM) | IC50 (CaCo-2 cells [6]; Caco-2, 72 h)
4 | C=C1CC[C@H]2O[C@]2(C)CC[C@@H]2[C@@H]1CC2(C)C [CAO, β-caryophyllene oxide] | > 50 µg/mL |  |  |  | none of tested sesquiterpenes showed hepatotoxicity; also recorded: mildly increased the viability of hepatocytes in a concentration-dependent manner | more pronounced enhancement of DOX accumulation | pro-oxidative effects | increase the pro-oxidative effect of DOX | significant synergistic effects with DOX |  | inhibited the proliferation of CaCo-2 cancer cells |  | significantly ameliorate DOX toxicity | 3.6 times | strongest |  |  |  | 
5 | C=C(C)[C@@H]1CCC2=CCC[C@@H](C)[C@]2(C)C1 [VAL, valencene] |  |  | increased DOX toxicity | did not influence DOX toxicity | none of tested sesquiterpenes showed hepatotoxicity |  | pro-oxidative effects | increase the pro-oxidative effect of DOX | significant synergistic effects with DOX |  | inhibited the proliferation of CaCo-2 cancer cells |  |  |  |  |  |  |  | 38.1 ± 2.4 µg/mL
